Some test systems named below: SK-MEL-28 melanoma; U251 CNS; MOLT-4 leukemia; NCI/ADR-RES ovarian; UO-31 renal; T-47D breast; NCI-H226 lung; EKVX NSCLC; MDA-MB-231 breast; RPMI-8226 leukemia; SR leukemia; CCRF-CEM leukemia; MDA-N; HCT-116 colon; HCT-15 colon; SF-539 CNS; SK-MEL-2 melanoma; SNB-75 CNS.
Holding throughout (test): growth of human tumour cells (NCI), 48 h

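Each compound was tested at five concentrations against cells in 96-well plates for 48 hours. TGI: concentration producing complete growth inhibition.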

Turning to `CCOC(OCC)N1C(=O)C2(C(OCC)OCC)CC3C(OC(=O)N3N)c3cccc1c32` (centres undefined), the TGI in the experiment on SK-MEL-28 melanoma, in the experiment with U251 CNS, in the experiment on MOLT-4 leukemia, in the experiment with NCI/ADR-RES ovarian, in the experiment on UO-31 renal and in the experiment with T-47D breast was greater than 100 µM in each case. Also, the TGI in the experiment with NCI-H226 lung, in the experiment on EKVX NSCLC, in the experiment on MDA-MB-231 breast, with RPMI-8226 leukemia, in the experiment on SR leukemia and in the experiment on CCRF-CEM leukemia was greater than 100 µM each time. Moreover, the TGI in the experiment on MDA-N, in the experiment on HCT-116 colon, in the experiment on HCT-15 colon and in the experiment with SF-539 CNS was greater than 100 µM each time.

As for `O=C(NNC(=S)NCc1ccccc1)c1csc(NC(=S)NC2CCCCC2)n1`, the TGI with SK-MEL-2 melanoma was 65.7 µM; in the experiment with U251 CNS it was greater than 100 µM; with MOLT-4 leukemia, greater than 100 µM; in the experiment on NCI/ADR-RES ovarian, 96.4 µM; in the experiment on UO-31 renal, 58.2 µM; in the experiment with T-47D breast it was 95.4 µM. The TGI was 64.7 µM with NCI-H226 lung; greater than 100 µM with EKVX NSCLC; 83.3 µM with MDA-MB-231 breast; 58.2 µM with RPMI-8226 leukemia; greater than 100 µM in the experiment on SR leukemia; greater than 100 µM in the experiment with CCRF-CEM leukemia. The TGI is 73.2 µM in the experiment on MDA-N, 72.3 µM in the experiment with HCT-116 colon, greater than 100 µM in the experiment with HCT-15 colon and greater than 100 µM in the experiment on SF-539 CNS.

In the case of `CC(=O)OCC1OC(O[C@@H]2C[C@H]3C(C)(C)[C@@H](OC(C)=O)CC[C@]3(C)[C@H]3CC[C@]45C[C@]4(CC[C@H]5[C@@H](C)C[C@@H](O)[C@H](O)C(C)(C)F)[C@@]32C)C(O)C(O)C1O` (some centres undefined), the TGI in the experiment with SK-MEL-28 melanoma was 3.3 µM; in the experiment on U251 CNS, 41.1 µM; with MOLT-4 leukemia, 4.28 µM; with NCI/ADR-RES ovarian it was 29.6 µM; with T-47D breast it was greater than 100 µM; with EKVX NSCLC it was 3.21 µM. Further, the TGI in the experiment with MDA-MB-231 breast came out at 48.2 µM; in the experiment with RPMI-8226 leukemia it was 4.24 µM; with CCRF-CEM leukemia it was 3.57 µM; in the experiment with MDA-N it was 3.09 µM; in the experiment with HCT-116 colon, 2.95 µM; with HCT-15 colon it was 5.94 µM. In the experiment on SF-539 CNS, this compound registered a TGI of 3.51 µM.

For the compound `CCOC(=O)c1cc(Br)c(-c2cc(C)no2)[nH]1`, the TGI with SK-MEL-28 melanoma, in the experiment on SK-MEL-2 melanoma, in the experiment with U251 CNS, in the experiment with MOLT-4 leukemia, with NCI/ADR-RES ovarian and in the experiment with UO-31 renal was greater than 100 µM each time. Moreover, the TGI with T-47D breast, in the experiment with NCI-H226 lung, in the experiment with EKVX NSCLC, in the experiment with MDA-MB-231 breast, with RPMI-8226 leukemia and in the experiment on MDA-N was greater than 100 µM each time. In addition, the TGI in the experiment with HCT-116 colon, in the experiment on HCT-15 colon, in the experiment on SNB-75 CNS and in the experiment on SF-539 CNS was greater than 100 µM throughout.

As for `O=C1c2c(ccc3c2CCC3)CC12Cc1ccccc1C2`, the TGI in the experiment with SK-MEL-28 melanoma is 80.4 µM; in the experiment with SK-MEL-2 melanoma, 47.6 µM; in the experiment on U251 CNS, greater than 100 µM; with MOLT-4 leukemia, 30.1 µM; in the experiment with NCI/ADR-RES ovarian, greater than 100 µM; in the experiment with UO-31 renal it was 59.7 µM. Moreover, the TGI in the experiment with T-47D breast was greater than 100 µM; in the experiment on NCI-H226 lung, 62.8 µM; in the experiment with EKVX NSCLC it was greater than 100 µM; in the experiment on MDA-MB-231 breast, 71.3 µM; in the experiment on RPMI-8226 leukemia, 44.3 µM; in the experiment on CCRF-CEM leukemia, 46.1 µM. Further, the TGI is 90.5 µM with MDA-N; 19.6 µM in the experiment with HCT-116 colon; greater than 100 µM in the experiment with HCT-15 colon; 91.1 µM in the experiment with SNB-75 CNS; 74.8 µM in the experiment on SF-539 CNS.

Regarding `C=C1C(=O)OC2C3C(=C)[C@@H](OC(C)=O)CC3C(C)=CC(OC(=O)C(C)(OC(C)=O)C(C)OC(C)=O)[C@@H]12` (some centres undefined), the TGI was determined as 29 µM with SK-MEL-28 melanoma; 27.4 µM in the experiment with SK-MEL-2 melanoma; 30.8 µM with U251 CNS; 52.2 µM with MOLT-4 leukemia; 30.8 µM in the experiment on UO-31 renal; 40.5 µM in the experiment on T-47D breast. For the same compound, the TGI in the experiment on NCI-H226 lung is 51.8 µM; in the experiment with EKVX NSCLC, 30.9 µM; in the experiment on MDA-MB-231 breast, 32.7 µM; in the experiment on RPMI-8226 leukemia it was 38.5 µM; with SR leukemia it was greater than 100 µM; in the experiment on CCRF-CEM leukemia, 12.3 µM. For the same compound, the TGI turned out to be 30.1 µM in the experiment with MDA-N; 23.8 µM in the experiment on HCT-116 colon; 25.7 µM in the experiment with HCT-15 colon; 37.1 µM with SNB-75 CNS; 33.5 µM with SF-539 CNS.

With `COc1ccc(N=NC(=Nc2ccc(Cl)cc2)c2ccc(N(CCC#N)CCC#N)cc2)cc1`, the TGI was greater than 100 µM in the experiment with SK-MEL-28 melanoma; 14.5 µM in the experiment on SK-MEL-2 melanoma; greater than 100 µM in the experiment with U251 CNS; 91.6 µM in the experiment with MOLT-4 leukemia; greater than 100 µM in the experiment on NCI/ADR-RES ovarian; greater than 100 µM with UO-31 renal. Besides, the TGI in the experiment with T-47D breast is 78 µM; in the experiment on NCI-H226 lung it was greater than 100 µM; with EKVX NSCLC, greater than 100 µM; with MDA-MB-231 breast, greater than 100 µM; in the experiment on RPMI-8226 leukemia, greater than 100 µM; with SR leukemia, greater than 100 µM. Moreover, the TGI in the experiment with MDA-N, with HCT-116 colon, with HCT-15 colon, in the experiment with SNB-75 CNS and with SF-539 CNS was greater than 100 µM throughout.

On to `COC(=O)C1=C(C)NC(C)=C(C(=O)OC)C1c1ccc(N=O)cc1`, for which the TGI in the experiment with SK-MEL-28 melanoma was 33.4 µM; in the experiment with SK-MEL-2 melanoma, 28.2 µM; in the experiment on U251 CNS, 32.2 µM; in the experiment with MOLT-4 leukemia, greater than 100 µM; in the experiment on NCI/ADR-RES ovarian, 50.9 µM; in the experiment with UO-31 renal it was 26.3 µM. The TGI with T-47D breast was 44.7 µM; in the experiment with NCI-H226 lung it was 39.3 µM; with EKVX NSCLC, 34.1 µM; with MDA-MB-231 breast, 25.2 µM; in the experiment on RPMI-8226 leukemia it was 5.02 µM; in the experiment on CCRF-CEM leukemia, greater than 100 µM. In addition, the TGI with MDA-N amounted to 16.6 µM; with HCT-116 colon, 36.8 µM; in the experiment with HCT-15 colon, 23.9 µM; in the experiment on SNB-75 CNS, 26.1 µM; with SF-539 CNS, 32 µM.

For the compound `CCOc1ccccc1-c1nc2c(s1)C(=O)c1ccccc1C2=O`, the TGI in the experiment with SK-MEL-28 melanoma is 30.4 µM; in the experiment on SK-MEL-2 melanoma, 30 µM; in the experiment on U251 CNS it was 27.7 µM; in the experiment on MOLT-4 leukemia it was greater than 100 µM; in the experiment with UO-31 renal it was 25.4 µM; with T-47D breast, 63.9 µM. Besides, the TGI is 41.2 µM in the experiment on EKVX NSCLC; 12.7 µM in the experiment on MDA-MB-231 breast; 54.8 µM in the experiment with RPMI-8226 leukemia; greater than 100 µM in the experiment on SR leukemia; 6.5 µM with MDA-N; 29.3 µM in the experiment with HCT-116 colon. The TGI is greater than 100 µM in the experiment with HCT-15 colon, 25.6 µM in the experiment on SNB-75 CNS and 40.9 µM in the experiment with SF-539 CNS.

The values above are taken from PubChem BioAssay (NCI).
